Laboratory results reported in patent US20050215635A1, “Diarylheptanoid compounds and uses thereof” (priority 2004, published 2005).

Key:
[1] = Radical-scavenging activity by DPPH; details: for IC50: DPPH 63.4 μM in methanol, absorbance at 515 nm, steady state, read-out: IC50 (μM) of Diarylheptanoids in Scavenging DPPH Free Radicals; for free radical scavenging, DPPH data (in words): DPPH assay
Description: In this example, the 2,2-diphenyl-1-picrylhydrazyl (DPPH) method was used to explore the capacity of five isolated compounds of the invention to act as free radical scavengers. The DPPH assay has been extensively used to test the free radical scavenging ability of various chemicals (Brand-williams, W. et al., Wiss. Technol. 1995, 28, 25-30; Dinis, T. C. et al., Arch. Biochem. Biophys. 1994, 315, 161-169.)
This method was adapted from that of Brand-Williams, et al. (Brand-williams, W.; Cuvelier, M. E.; Berset, C. Lebensm. Wiss. Technol. 1995, 28, 25-30.). At least seven different concentrations were prepared for each purified compound. 25 μl pure compound solution and 975 μL DPPH solution (63.4 μM) were mixed together and left in the dark for 30 min. Each sample was triplicated and the values were averaged. The absorbance of the samples was measured at 515 nm against methanol solution without DPPH as the blank reference. The absorbance was measured every 30 min until the reaction reached a plateau. The reaction kinetics were then plotted using the above data and the percentage of DPPH remaining at the steady state was obtained. IC50 values were determined by extrapolation from linear regression analysis.
DPPH, 2,2-Diphenyl-1-picrylhydrazyl (DPPH.), is a stable radical in methanol solution. In its radical form, DPPH. absorbs at 515 nm, but the absorption ceases upon reduction by an antioxidant (AH) or a radical species (R.) (Brand-williams, W.; Cuvelier, M. E.; Berset, C. Lebensm. Wiss. Technol. 1995, 28, 25-30.). The concentration of tested chemicals needed to decrease the initial DPPH. concentration by 50% (IC50) is a parameter widely used to measure the antioxidant potential (Kanner, J.; Frankel, E.; German, B.; Kinsella, J. e. J. Agric. Food Chem. 1994, 42, 64-69, Vinson, J. A.; Dabbagh, Y. A.; Serry, M. M. J. Agric. Food Chem. 1995a, 43,2800-2802.). The lower the IC50, the higher the free radical scavenging power.

[2] = tested on: Du-145 prostate tumor cells; assay: MTT-microculture tetrazolium cell viability assay / induction of apoptosis in Du-145; assay type: cell-based; details: for IC50: Homo sapiens, Du-145 prostate tumor cells, MTT, 72 hours incubation, drug concentration giving 50% inhibition of growth, read-out: IC50 (μM), Effects of Diarylheptanoids on Inducing Apoptosis in DU-145 Cancer Cell Line; for activity in bioassay: inducing apoptosis in Du-145 cancer cell line (in words): bioassay-directed fractionation of Alpinia officinarum
Protocol: The rhizomes of Alpinia officinarum were purchased from Nuherbs Co. (Oakland, Calif.). Du-145 prostate tumor cells were obtained from the American Type Culture Collection (ATCC). Cells were maintained at 37° C. in an atmosphere of 5% CO2 and grown in Roswell Park Memorial Institute (RPMI) media 1640 (GIBCO/BRL) with 10% fetal bovine serum and with 5% penicillin and streptomycin.
The powdered roots of Alpinia officinarum were extracted with methanol and concentrated under vacuum using rotary evaporation. The dried residue was then partitioned with hexanes, ethyl acetate and 1-butanol successively. The three extracts were subjected to bioassays.
The dried ethyl acetate extract was then chromatographed on a normal phase silica gel column (2.5×30 cm) to perform bioassay-directed fractionation. The extract was first dissolved in methanol and loaded onto the column packing material. The prepared extract was then placed on top of the column and elution was performed using a solvent mixture of chloroform/methanol with an increasing amount of methanol (30:1, 20:1, 10:1, 5:1, 0:100; each 1000 mL). Successive fractions were collected and tested for biological activity. […] This fraction was then rechromatographed on a semipreparative Zorbax Rx-C18 reversed phase HPLC column (9.4 mm×240 mm, 5 μm) purchased from MacMod Analytical (Chadds Ford, Pa.). Compounds were eluted by an isocratic solvent system: 55% A, water with 0.05% formic acid (FA); 45% B, ACN (v/v) at a flow rate of 4 mL/min. The wavelength monitored was 205 nm. Successive fractions (1-3) were collected and sent for biological testing again.
Cellular growth in the presence or absence of experimental agents was determined using the modified method as previously described MTT-microculture tetrazolium assay (World Health Organization (ED.), Medicinal Plants in China, WHO Regional Publications, 1989, 21). Briefly, rapidly growing cells were harvested, counted, and inoculated at the appropriate concentrations (100 μL volume) into 96-well micro-titer plates using a multichannel pipet. After 24 hours, AO-1 to AO-5 were applied in different concentrations to triplicate culture wells, and cultures were incubated for 72 hours at 37° C. MTT ( Sigma, St. Louis, Mo.) was prepared at 2 mg/ml in Phosphate buffered saline (PBS) and 50 μL were added to microculture wells. After 4 hour incubation at 37° C., […] were removed from each well, and 150 μL of 100% DMSO were added to solubilize the MTT-formazan product. After thorough mixing with a mechanical plate mixer, absorbence was measured at 570 nm using a Dynatech microplate reader. […] This assay is based on the reduction of MTT tetrazolium salt to a formazan product by the metabolic activity of live cells and which was measured in a multiwell scanning spectrophotometer. Cell line growth and growth inhibition were expressed in terms of mean absorbance units and following the substraction of mean background absorbance.

SMILES	IC50 [1]	IC50 [2]	activity in bioassay: inducing apoptosis in Du-145 cancer cell line (in words) [2]	free radical scavenging, DPPH data (in words) [1]
O=C(/C=C/CCc1ccc(O)cc1)CCc1ccccc1 [AO-3, 7-(4″-hydroxyphenyl)-1-phenyl-hept-4-en-3-one]	> 1000 µM	20 µM	some activity	
COc1cc(CCC(CC(=O)CCc2ccccc2)OC)ccc1O (stereo not shown) [AO-2, 5-methoxy-7-(4″-hydroxy-3″methoxyphenyl)-1-phenyl-3-heptanone]	12.7 µM	88 µM	some activity	very good free radical scavengers
COc1cc(CCC(O)CC(=O)CCc2ccccc2)ccc1O (stereo not shown) [AO-1, 5-Hydroxy-7-(4″-hydroxy-3″methoxyphenyl)-1-phenyl-3-heptanone]	11.4 µM	100 µM	biological activity to some level	very good free radical scavengers
O=C(/C=C/CCc1ccccc1)CCc1ccccc1 [AO-5, 1,7-diphenylhept-4-en-3-one]	> 5000 µM	32 µM		
